Article PMC7542596 (ACS Omega, 2020)

How the values were obtained:
[1] = system: H5N1 influenza virus strain A/Egypt/M7217B/2013; assay: microbe, parasite or virus in culture; format: cell-based, influenza A virus (subtype H5N1); conditions: for inhibition at 125 µM / inhibition at 250 µM: MDCK, read-out: inhibition % (plaque reduction assay)
[2] = system: Madin–Darby canine kidney (MDCK) cells; conditions: dog

`CSC(NC(=O)c1ccccc1)=C(C#N)C#N` [3a, N-(2,2-Dicyano-1-(methylthio)vinyl)benzamide] was tested, and the “viral count (plaque reduction assay)” value [1] was 5.0 × 10^6 4.0 × 10^6 PFU/mL, the inhibition at 125 µM [1] was 16.7% and the inhibition at 250 µM [1] was 33.3%. For the same compound, the “MTT assay LD50” value [2] was 200 µmol/mL.

For `CCSC(NC(=O)c1ccccc1)=C(C#N)C#N` [3b, N-(2,2-Dicyano-1-(ethylthio)vinyl)benzamide], the “therapeutic index (qualitative, plaque reduction assay)” value [1] was “higher therapeutic indices”, the “viral count (plaque reduction assay)” value [1] was 2.2 × 10^6 9.0 × 10^5 PFU/mL and the inhibition at 125 µM [1] was 63.3%. The inhibition at 250 µM [1] was 85%, the “MTT assay LD50” value [2] was 480 µmol/mL and the “safety for healthy cells judged from LD50 values (NCI and GERAN protocol)” value [2] was “safe for healthy cells”.

For `N#CC(C#N)=C(NC(=O)c1ccccc1)SCc1ccccc1` [3c, N-(1-(Benzylthio)-2,2-dicyanovinyl)benzamide], the “viral count (plaque reduction assay)” value [1] was 2.8 × 10^6 2.1 × 10^6 PFU/mL, the inhibition at 125 µM [1] was 53.3% and the inhibition at 250 µM [1] was 65%. The “MTT assay LD50” value [2] was 200 µmol/mL.

With `N#Cc1nnc2c(C#N)c(NC(=O)c3ccccc3)nn2c1N` [6a, N-(4-Amino-3,8-dicyanopyrazolo[5,1-c][1,2,4]triazin-7-yl)benzamide] the “viral count (plaque reduction assay)” value [1] was 4.0 × 10^6 3.0 × 10^6 PFU/mL, the inhibition at 125 µM [1] was 33.3% and the inhibition at 250 µM [1] was 50%. The “MTT assay LD50” value [2] was 200 µmol/mL.

In the case of `CCOc1c(C#N)nnc2c(C#N)c(NC(=O)c3ccccc3)nn12` [6b, N-(3,8-Dicyano-4-ethoxypyrazolo[5,1-c][1,2,4]triazin-7-yl)benzamide], the “viral count (plaque reduction assay)” value [1] is reported as 3.0 × 10^6 3.2 × 10^6 PFU/mL, the inhibition at 125 µM [1] is reported as 50% and the inhibition at 250 µM [1] is reported as 46.7%. For the same compound, the “MTT assay LD50” value [2] was 100 µmol/mL.

`N#Cc1c(NC(=O)c2ccccc2)nn2c3c(cnc12)CCC3` [8a, N-(3-Cyano-7,8-dihydro-6H-cyclopenta[e]pyrazolo[1,5-a]pyrimidin-2-yl)benzamide] was tested, and the “viral count (plaque reduction assay)” value [1] was 4.0 × 10^6 2.5 × 10^6 PFU/mL, the inhibition at 125 µM [1] was 33.3% and the inhibition at 250 µM [1] was 58.3%. For the same compound, the “MTT assay LD50” value [2] was 170 µmol/mL.

`N#Cc1c(NC(=O)c2ccccc2)nn2c3c(cnc12)CCCC3` [8b, N-(3-Cyano-6,7,8,9-tetrahydrocyclohexa[e]pyrazolo[1,5-a]pyrimidin-2-yl)benzamide] was tested, and the “MTT assay LD50” value [2] was 210 µmol/mL.

For `COc1ccc(-c2c(C#N)c(N)nc3c(C#N)c(NC(=O)c4ccccc4)nn23)cc1` [10b, N-(5-Amino-3,6-dicyano-7-(4-methoxyphenyl)pyrazolo[1,5-a]pyrimidin-2-yl)benzamide], the “therapeutic index (qualitative, plaque reduction assay)” value [1] was “higher therapeutic indices”, the “viral count (plaque reduction assay)” value [1] was 1.0 × 10^6 b PFU/mL and the “MTT assay LD50” value [2] was 140 µmol/mL.

In the case of `N#Cc1c(N)nc2c(C#N)c(NC(=O)c3ccccc3)nn2c1-c1ccc(Cl)cc1` [10c, N-(5-Amino-7-(4-chlorophenyl)-3,6-dicyanopyrazolo[1,5-a]pyrimidin-2-yl)benzamide], the “viral count (plaque reduction assay)” value [1] is reported as 4.0 × 10^6 2.0 × 10^6 PFU/mL, the inhibition at 125 µM [1] is reported as 33.3% and the inhibition at 250 µM [1] is reported as 66.7%. For the same compound, the “MTT assay LD50” value [2] was 120 µmol/mL.

For `Cc1cc(C)n2nc(NC(=O)c3ccccc3)c(C#N)c2n1` [12a, N-(3-Cyano-5,7-dimethylpyrazolo[1,5-a]pyrimidin-2-yl)benzamide], the “viral count (plaque reduction assay)” value [1] was 4.6 × 10^6 2.0 × 10^6 PFU/mL, the inhibition at 125 µM [1] was 23.3% and the inhibition at 250 µM [1] was 66.7%. For the same compound, the “MTT assay LD50” value [2] was 210 µmol/mL.

With `Cc1cc(O)n2nc(NC(=O)c3ccccc3)c(C#N)c2n1` [12b, N-(3-Cyano-7-hydroxy-5-methylpyrazolo[1,5-a]pyrimidin-2-yl)benzamide] the “viral count (plaque reduction assay)” value [1] was 5.0 × 10^6 4.0 × 10^6 PFU/mL, the inhibition at 125 µM [1] was 16.7% and the inhibition at 250 µM [1] was 33.3%. For the same compound, the “MTT assay LD50” value [2] was 190 µmol/mL.

`CC(=O)OC[C@H]1O[C@@H](SC(NC(=O)c2ccccc2)=C(C#N)C#N)[C@H](OC(C)=O)[C@H](OC(C)=O)[C@H]1OC(C)=O` [21a, (2R,3S,4R,5R,6S)-2-(Acetoxymethyl)-6-((1-benzamido-2,2-dicyanovinyl)thio)tetrahydro-2H-pyran-3,4,5-triyl triacetate] was tested, and the “viral count (plaque reduction assay)” value [1] was 2.2 × 10^6 2.0 × 10^6 PFU/mL, the inhibition at 125 µM [1] was 63.3% and the inhibition at 250 µM [1] was 66.7%. The “MTT assay LD50” value [2] was 90 µmol/mL.

With `CCOC(=O)/C(C#N)=C(\NC(=O)c1ccccc1)S[C@@H]1O[C@H](COC(C)=O)[C@H](OC(C)=O)[C@@H](OC(C)=O)[C@H]1OC(C)=O` [21b, (2R,3S,4R,5R,6S)-2-(Acetoxymethyl)-6-(((E)-1-benzamido-2-cyano-3-ethoxy-3-oxoprop-1-en-1-yl)thio)tetrahydro-2H-pyran-3,4,5-triyl triacetate] the “viral count (plaque reduction assay)” value [1] was 3.5 × 10^6 2.0 × 10^6 PFU/mL, the inhibition at 125 µM [1] was 41.7% and the inhibition at 250 µM [1] was 66.7%. For the same compound, the “MTT assay LD50” value [2] was 210 µmol/mL.

`N#Cc1c(NC(=O)c2ccccc2)n[nH]c1N` [compound 4, N-(5-Amino-4-cyano-1H-pyrazol-3-yl)benzamide] was tested, and the “therapeutic index (qualitative, plaque reduction assay)” value [1] was “higher therapeutic indices”, the “viral count (plaque reduction assay)” value [1] was 2.0 × 10^6 1.4 × 10^6 PFU/mL and the inhibition at 125 µM [1] was 66.7%. The inhibition at 250 µM [1] was 76.7% and the “MTT assay LD50” value [2] was 30 µmol/mL.

In the case of `CCOC(=O)/C(C#N)=C(\NC(=O)c1ccccc1)SC` [compound 14, (E)-Ethyl 3-benzamido-2-cyano-3-(methylthio)acrylate], the “viral count (plaque reduction assay)” value [1] is reported as 5.0 × 10^6 5.0 × 10^6 PFU/mL, the inhibition at 125 µM [1] is reported as 16.7% and the inhibition at 250 µM [1] is reported as 16.7%. The “MTT assay LD50” value [2] was 130 µmol/mL.

For `CCOc1n[nH]c(-c2ccccc2)n1` [compound 19, 3-Ethoxy-5-phenyl-1H-1,2,4-triazole], the “viral count (plaque reduction assay)” value [1] was 2.2 × 10^6 2.0 × 10^6 PFU/mL, the inhibition at 125 µM [1] was 63.3% and the inhibition at 250 µM [1] was 66.7%. For the same compound, the “MTT assay LD50” value [2] was 230 µmol/mL.

`CC(=O)N[C@H]1[C@H]([C@H](O)[C@H](O)CO)OC(C(=O)O)=C[C@@H]1N=C(N)N` [zanamivir, reference compound] was tested, and the “viral count (plaque reduction assay)” value [1] was 5.0 × 10^4 1.1 × 10^4 PFU/mL, the inhibition at 125 µM [1] was 99.2% and the inhibition at 250 µM [1] was 99.8%.
